Experimental data from patent EP1101492A1, “NOVEL REMEDIES FOR ALLERGIC DISEASES” (FUJI YAKUHIN KOGYO KABUSHIKI KAISHA, priority 1998, dated 2000).

Columns and labels:
[1] = tested on: mouse experimental atopic dermatitis models; experiment: Auricle edema in experimental atopic dermatitis model (anti-DNP IgE sensitization, DNFB elicitation); format: in vivo, Balb/c mice; conditions: for % Inhibition IPR: auricle edema 1 hour post-elicitation; for % Inhibition IPR / % Inhibition LPR / % Inhibition vLPR: test compounds 60 mg/kg s.c., prednisolone 10 mg/kg i.p.; for % Inhibition IPR / % Inhibition LPR: once a day, 24 & 2 hours prior to DNFB-elicitation, vs untreated group; for % Inhibition LPR: auricle edema Day 1 post-elicitation; for % Inhibition vLPR: auricle edema Day 7 post-elicitation
Method: Intravenous injection of an anti-2,4-dinitrophenol (DNP) antibody (anti-DNP Ab, monoclonal IgE Ab; its antibody titer was 1 : 512 to 1 : 1024 by a rat heterologous passive cutaneous anaphylaxis reaction using a Wister rat) into a tail vein of female Balb/c mice (7-week old, body weight: 17 to 20 g, purchased from JAPAN SLC, Inc.) at a dose of […] per animal raised passive sensitization. Twenty four hours post-sensitization, 0.1% 2,4-dinitrofluorobenzene (DNFB; Nacalai Tesque, Inc.) in ethanol was painted onto both sides of a pair of mouse auricles at a dose of 10µL per each side for elicitation.
Fresh unsensitized mice were painted with 0.1% DNFB in ethanol onto their ear in the same manner as aforementioned and served as a control group. Not only immediately prior to elicitation but also 1 hour, 5 hours, daily between Days 1 and 14, and on Day 16 post-elicitation, ear thickness was measured using a dial thickness gauge (Peacock Co.). Each degree of auricle edemas was calculated: Auricular Edema (µm)=(Ear Thickness Post-Elicitation, µm) - (Ear Thickness immediately prior to Elicitation, µm) [formula]
Balb/c mice were passively sensitized with anti-DNP IgE Ab in the same manner as in Example 1. Twenty four hours later, 0.1% DNFB in ethanol was painted onto both sides of a pair of mouse auricles at a dose of 10 µL per each side for elicitation.
Immediately prior to elicitation, 1 hour and on Day 1 post-elicitation, auricle thickness was measured in the same manner as in Example 1. Each therapeutic efficacy is recorded as a percent inhibition wherein the "auricle edema (untreated group)" is used as a control. Auricle Edema Inhibition (%) = [ 1 -(Auricle Edema (Treated Group))/(Auricle Edema (Untreated Group))] × 100 (%) [formula]
Immediately prior to elicitation, and on Day 7 post-elicitation, auricle thickness was similarly measured. Each therapeutic efficacy is recorded as a percent inhibition wherein the auricle edema in the untreated group is used as a control.
Immediately prior to elicitation, and on Day 7 post-elicitation, auricle thickness was similarly measured. Each therapeutic efficacy is recorded as a percent inhibition wherein the auricle edema (untreated group) is used as a control.
Immediately prior to elicitation, at 1 and 4 hours and on Days 1, 3 and 7 post-elicitation, auricle thickness was similarly measured. From each auricle edema (µm) based on the auricle thickness immediately prior to elicitation, especially a prophylactically therapeutic efficacy of the test compound was evaluated.
Immediately prior to elicitation, at 0.5, 1 and 4 hours and on Days 1, 3 and 7 post-elicitation, auricle thickness was similarly measured. Each amount of auricle edemas was calculated (average± standard deviation).

Body weight gain in mice = conditions: test compounds 60 mg/kg s.c., prednisolone 10 mg/kg i.p., once a day for 6 days (Days 0-5), average ± standard deviation; for Body Weight Gain, Observation Day 5: non-administered 0.50± 0.23; for Body Weight Gain, Observation Day 7: non-administered 0.80± 0.48; for Body Weight Gain, Observation Day 10: non-administered 1.07± 0.58
Method: Accordingly, for assessing the side-effect each of the following test compounds an action on body weight gains was examined.
Next the mice were measured for their body weight. Each body weight gain was calculated on Days 5, 7 and 10 post-administration based on the body weight just prior to administration.

IgE = experiment: Serum IgE level in sensitized and DNFB-elicited mice (ELISA); format: in vivo, Balb/c mice; conditions: 100 µg/ear in ethanol painted twice a day, 1 hour pre-elicitation, 0.25, 4, 5 and 6 days post-elicitation; serum 7 days post-elicitation; average ± standard deviation; untreated 34.55 ± 8.89, healthy 11.79 ± 2.35
From the text: Ethanol alone was also painted onto both sides of a mouse left auricle. […] Blood was also drawn from unsensitized healthy mice and untreated mice and treated to give serum samples. Seven days post-elicitation, blood samples were drawn by cardiac puncture using a syringe treated with heparin, and then centrifuged to give serum samples.
A dilution of polyclonal goat anti-mouse IgE antibody (Bethyl Laboratories, Inc.; 500-fold dilution) in 0.1 M sodium carbonate-sodium bicarbonate buffer (pH 9.6) was added to each well of a 96-well microtest plate (MaxiSorp, Nunc, Inc.) at a rate of 100 µL/well and the resultant microtest plates were allowed to stand at about 4°C overnight in a refrigerator. Each well was rinsed 3 times with phosphate buffer (pH 7.4) containing 0.05% Tween 20. Next, 0.1 M sodium carbonate-sodium bicarbonate buffer (pH 9.6) containing 1 % bovine serum albumin was added to each well at a rate of 100 µL/well. The resultant microtest plates were allowed to stand at room temperature for 1 hour and washed 3 times. Thereafter, 2-fold serial dilutions of mouse serum samples were poured into each well of microtest plates at 100 µL/well, which was subjected to an antigen-antibody reaction at 4°C for 2 hours. […] The resultant enzymatic reaction products were measured at 405 nm.

[2] = tested on: guinea pig experimental bronchial asthma models; experiment: Experimental bronchial asthma model (ovalbumin inhalation): airway resistance and asthmatic death; conditions: prednisolone 10 mg/kg orally;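 also: female Std:Hartley guinea pigs sensitized by inhaling nebulized ovalbumin once daily for 8 consecutive days, 8 to 11 animals per group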
Method: Guinea pigs (female, Std:Hartley, 3 weeks old, 200 to 250 g) were individually housed in a plastic chamber (width, 200 mm; depth, 300 mm; height, 167 mm). Aqueous ovalbumin (10 mg/mL) was administered to the guinea pigs once a day for sensitization by 10 min. inhalation with a nebulizer (5B, Nippon Shoji K.K.: flow rate, 6 L/min.) at a dose of 10 mg/mL during 8 cosecutive days. On Day 7 after the final sensitization, the guinea pigs were housed in a plastic chamber and inhaled using a nebulizer with a solution of ovalbumin (10 mg/mL) in physiological saline for 1 min. for elicitation (Matsumoto, T., et al., The Journal of Pharmacology and Experimental Therapeutics, 269: 1236-1244, 1994). The number of animals employed in the experiment was set to the extent there are at least 6 as individuals escaping asthmatic death. A solution of a test compound (Compound No. 130, 15 mg/kg) in water for injection was administered subcutaneously twice, i.e., 24 hours and 2 hours prior to elicitation. Similarly, the solvent alone was also administered to a negative control group. A suspension of prednisolone (10 mg/kg) in 0.5% aqueous methyl cellulose was administered orally twice, i.e., 24 hours and 2 hours prior to elicitation. Similarly, the solvent alone was also administered to another control group.
The evaluation for efficacies was conducted in terms of airway resistance. For this purpose, an apparatus dedicated to the measurement of airway resistance (K.K. Medical Agent) was employed. Measurement includes setting a guinea pig in a test chamber under a not-anesthetized condition, applying sinusoidal pressure waves of 30 Hz components to a part below the neck of the animal from the back side of the chamber, measuring respiratory waves of 30 Hz components leaking through the mouth (volume of 30 Hz air flow passing through the respiratory tract) in front of the neck, and calculating airway resistance mechanically. Measurement was carried out immediately prior to the first drug treatment (24 hours before elicitation), just prior to elicitation, 10 minutes, 1, 2, 4, 6, and 8 hours post-elicitation.
It was visually observed by a person carrying out said test in terms, of the appearance of cyanosis or suffocative death (asthmatic death) due to respiratory obstruction.
Guinea pigs were sensitized with ovalbumin and asthma was induced on Day 7 after final sensitization in the same manner as in Example 20. The number of animals employed in the experiment was set to the extent there are at least 6 as individuals escaping asthmatic death (8 to 11 animals/group). In the same manner as in Example 20, the animals were measured for airway resistance mechanically and each percent change (%) in airway resistance was calculated (each value just prior to elicitation was set as 100%). Each percent amelioration in airway resistance was calculated from the percent changes in airway resistance according to the following formula: Amelioration in Airway Resistance (%) = 1 -[((Percent Change in Airway Resistance after Drug-Administration) - (Value just prior to Challenge (100)))/((Percent Change in Airway Resistance after Solvent-Administration) - (Value just prior to Challenge (100)))]× 100 [formula]

[3] = Body weight gain in sensitized mice; format: in vivo; conditions: test compound 50 µg/ear/dose, prednisolone 5 µg/ear/dose, in ethanol painted twice a day, Days 1, 4 and 7, vs solvent control (ethanol)
Method: Experimental atopic dermatitis model mice sensitized in the same manner as in Example 1 were examined for influence on body weight gains.
Each mouse was measured for its body weight not only immediately before the start in painting but also on Days 1, 4 and 7 after the start in painting. Each gain in body weight was calculated and considered to indicate an effect on body weight changes affected by said treatments.

[4] = daily from 3 to 6 days after DNFB-elicitation
[5] = daily from 1 day prior to through 5 days after DNFB-elicitation
[6] = asthmatic death due to cyanosis within several minutes after elicitation, Compound No. 130 15 mg/kg s.c., 24 and 2 hours prior to elicitation
[7] = test compounds 15 mg/kg s.c. (Compound No. 114: 30 mg/kg), 24 and 2 hours prior to elicitation, vs solvent control

SMILES: CC(=N)NCCCC[C@H](NC(=O)[C@H](CC(C)C)C(CCCc1ccccc1)C(=O)NO)C(=O)NCCN(C)C.CC(=O)O.CC(=O)O (mixture of isomers) [Compound No. 44, N^a-[4-(Hydroxyamino)-2(R)-isobutyl-3(RS)-(3-phenylpropyl)succinyl]-N^e-acetimidoyl-L-lysine N-(2-N',N'-dimethylaminoethyl)amide · 2 acetate]
- inhibitory efficacy on IgE-mediated auricle edema (FIG. 8) ([1]; 150 mg/kg orally once a day, compared to solvent control group, IPR 1 hour, LPR 1 day, vLPR 7 days): not only an inhibitory activity on the development of edemas in both IPR and LPR but also a remarkably strong inhibitory activity in vLPR
- % Inhibition IPR [1]: 43.9%
- % Inhibition LPR [1]: 43.6%
- % Inhibition vLPR [1, 4]: 65.6%
- % Inhibition vLPR [1, 5]: 22.0%
- Body Weight Gain, Observation Day 5 (Body weight gain in mice): 0.80± 0.30
- Body Weight Gain, Observation Day 7 (Body weight gain in mice): 1.08± 0.57
- Body Weight Gain, Observation Day 10 (Body weight gain in mice): 1.23± 0.56
- Serum IgE Level (IgE): 26.70 ± 10.88 ng/mL

SMILES: C[C@]12C=CC(=O)C=C1CC[C@@H]1[C@@H]2[C@@H](O)C[C@@]2(C)[C@H]1CC[C@]2(O)C(=O)CO [Prednisolone, reference compound]
- % Inhibition IPR [1]: 36.8%
- % Inhibition LPR [1]: 29.9%
- % Inhibition vLPR [1, 4]: 24.8%
- % Inhibition vLPR [1, 5]: 24.8%
- Body Weight Gain, Observation Day 5 (Body weight gain in mice): 0.00± 0.26
- Body Weight Gain, Observation Day 7 (Body weight gain in mice): 0.03± 0.57
- Body Weight Gain, Observation Day 10 (Body weight gain in mice): 0.97± 0.47
- % Mortality [2, 6]: 22.2%
- (Dead Animals)/(Tested Animals) [2, 6]: 2/9
- % Survival ([2]; asthmatic death within several minutes after elicitation, test compounds 15 mg/kg s.c. (Compound No. 114: 30 mg/kg), water for injection 54.5, 0.5% methyl cellulose 66.7): 75.0%
- % Amelioration in Airway Resistance, 1 Hour after Elicitation [2, 7]: 23.6%
- % Amelioration in Airway Resistance, 6 Hours after Elicitation [2, 7]: 14.8%
- % Amelioration in Airway Resistance, Immediately after Elicitation [2, 7]: 11.5%
- gain in body weight (FIG. 10) [3]: below that in the solvent control group
